Data as given in patent US7455998B2, “Methods for forming structurally defined organic molecules” (Dow Corning Corporation, priority 2004, dated 2008).

Experiments:
trypsin [1] = target: T1, trypsin (Bos taurus, UniProt P00760); test: Trypsin-catalyzed hydrolysis and condensation of alkoxysilanes; assay type: biochemical, bovine; set-up: purchased Sigma-Aldrich #T4665; host or cells: bovine pancreas; conditions: 4:1 monomer to enzyme weight ratio, 25° C., three hours
T1 sequence (P00760 24-246): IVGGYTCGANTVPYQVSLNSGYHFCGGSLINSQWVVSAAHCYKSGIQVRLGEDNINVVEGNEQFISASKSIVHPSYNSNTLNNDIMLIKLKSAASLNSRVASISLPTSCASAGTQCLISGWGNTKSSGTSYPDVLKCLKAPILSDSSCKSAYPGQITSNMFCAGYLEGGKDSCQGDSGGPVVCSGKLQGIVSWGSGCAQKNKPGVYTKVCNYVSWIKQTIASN

[2] = Hydrolysis and condensation control reactions after three hours; conditions: for condensation of trimethylethoxysilane (result in words): pH 7.0, 25° C., three hours
Method: Prior to reaction, the alkoxysilane was pre-treated with sodium hydrogencarbonate due to the potential presence of residual chloro-functional silanes. The reactions were formulated with a 4:1 trimethylethoxysilane to protein weight ratio (˜1000:l alkoxysilane to trypsin mole ratio) in neutral media (pH 7.0) and conducted at 25° C. for three hours.

[3] = Protease-catalyzed condensation study after three hours; assay type: biochemical
Method: In comparison to control reactions, the ability of the proteases detailed in Table 3 to catalyse siloxane condensation was screened with […]. Comparatively, the original reactions conducted in the enzyme-catalysed condensation study were performed for six days versus three hours in this study.
Prior to reaction, the glass vials were silylated. […].
TLCK inhibits trypsin by alkylating the histidine residue in the catalytic triad.

trypsin [4] = target: T1, trypsin; test: Trypsin-catalyzed ring opening polymerization of cyclic siloxanes; assay type: biochemical, bovine; set-up: purchased Sigma-Aldrich #T4665; host or cells: bovine pancreas; conditions: 25° C., pH 7.0, 8 days, qualitative GC; for Cyclic Area Percent, Tetramer (x = 4), Trypsin / Cyclic Area Percent, Trimer (x = 3), Trypsin / Cyclic Area Percent, Pentamer (x = 5), Trypsin: with trypsin; for Cyclic Area Percent, Tetramer (x = 4), Control / Cyclic Area Percent, Trimer (x = 3), Control / Cyclic Area Percent, Pentamer (x = 5), Control: without trypsin
Source text: The ability of trypsin to catalyze the cleavage and formation of Si—O bonds during the ring opening polymerization of cyclic siloxanes was explored under mild conditions. Specifically, five cyclic siloxanes: hexamethylcyclotrisiloxane, octamethylcyclotetrasiloxane, trimethyltri(trifluoropropyl)cyclotrisiloxane, tetramethyltetra(trifluoropropyl)cyclotetrasiloxane, and tetramethyltetraphenylcyclotetrasiloxane, were selected to study how the activity of trypsin varied as a result of different steric and electronic interactions with the substrate.
The two-phase reactions were formulated with a 4:1 monomer to enzyme weight ratio and conducted at 25° C. in neutral media (pH 7.0) for 8 days. The reaction products were isolated and qualitatively analyzed by GC (Table 5).

[5] = Enzyme-catalyzed condensation study after six days; assay type: biochemical; conditions: water, 25° C.
Source text: This study was directed to an enzyme screen with […] in order to evaluate the ability of various enzymes to catalyze the formation of a siloxane bond. Based on the similarities of the proteins isolated from the Tethya aurantia marine sponge (silicatein), Cylindrotheca fusiformis diatom (silaffin), and Equisetum telmateia plant (biopolymer extract), a series of lipases and serine-proteases were selected as homologous proteolytic enzymes. […] […]. In this study, control reactions were defined as non-enzymatic reactions. Specifically, experiments conducted in the absence of a protein were defined as negative control reactions. Proteinaceous molecules such as bovine serum albumin and porcine γ-globulins were used to study non-specific protein catalysis.
[…]. […] (˜200 mg/mL).

[6] = Hydrolysis and condensation of trimethylethoxysilane by different sources of trypsin; effect of calcium; assay type: biochemical; conditions: for increase of yield of the condensation of trimethylsilanol with calcium: 20 mM CaCl2, pH 7.0, 25° C., three hours; for hydrolysis of trimethylethoxysilane and condensation of trimethylsilanol (result in words): pH 7.0, 25° C.
Source text: Although various sources (e.g. mammalian, fish) of trypsin are similar (e.g. tertiary structure), their selectivity and activity may be different. […] . The reaction products were isolated and quantitatively analysed by GC (FIG. 24).
Calcium activation of trypsin induces changes in the tertiary structure of the enzyme. […] . […] The reaction products were isolated and quantitatively analysed by GC (FIG. 25).

CCCCCCO[Si](C)(C)C [trimethylhexoxysilane]
trypsin-catalyzed hydrolysis and condensation (result in words) (trypsin [1]): catalyzed the partial hydrolysis of trimethylhexoxysilane without condensation

CCO[Si](C)(C)c1ccccc1 [phenyldimethylethoxysilane]
trypsin-catalyzed hydrolysis and condensation (result in words) (trypsin [1]): hydrolysed but not condensed

poly-L-lysine
hydrolysis of trimethylethoxysilane (result in words) ([2]; neutral medium (pH 7.0)): promoted the hydrolysis
condensation of trimethylethoxysilane (result in words) [2]: not observed
condensation of trimethylsilanol (result in words) ([3]; pH 7.0, three hours): not observed

CCO[Si](C)(C)CCCN [aminopropyldimethylethoxysilane]
trypsin-catalyzed hydrolysis and condensation (result in words) (trypsin [1]): fully hydrolysed and condensed in the presence and absence of trypsin

COCCOCCOCCOCCO[Si](C)(C)C [glycol-functional silane]
trypsin-catalyzed hydrolysis and condensation (result in words) (trypsin [1]): not definitive

Cn1ccnc1 [N-methylimidazole]
condensation of trimethylethoxysilane (result in words) [2]: not observed
condensation of trimethylsilanol (result in words) ([3]; pH 7.0, three hours): not observed

C[Si]1(C)O[Si](C)(C)O[Si](C)(C)O[Si](C)(C)O1 [B, octamethylcyclotetrasiloxane]
Cyclic Area Percent, Tetramer (x = 4), Trypsin (trypsin [4]): (99.8)
Cyclic Area Percent, Trimer (x = 3), Trypsin (trypsin [4]): (0.2)
Cyclic Area Percent, Tetramer (x = 4), Control (trypsin [4]): (99.8)
Cyclic Area Percent, Trimer (x = 3), Control (trypsin [4]): (0.2)

C[Si]1(CCC(F)(F)F)O[Si](C)(CCC(F)(F)F)O[Si](C)(CCC(F)(F)F)O[Si](C)(CCC(F)(F)F)O1 (centres unmarked) [D, tetramethyltetra(trifluoropropyl)cyclotetrasiloxane]
Cyclic Area Percent, Pentamer (x = 5), Trypsin (trypsin [4]): (5.1)
Cyclic Area Percent, Tetramer (x = 4), Trypsin (trypsin [4]): (94.9)
Cyclic Area Percent, Trimer (x = 3), Trypsin (trypsin [4]): (0)
Cyclic Area Percent, Pentamer (x = 5), Control (trypsin [4]): (3.4)
Cyclic Area Percent, Tetramer (x = 4), Control (trypsin [4]): (96.3)
Cyclic Area Percent, Trimer (x = 3), Control (trypsin [4]): (0.2)

elastase: porcine pancreatic elastase
condensation of trimethylsilanol (result in words) ([3]; pH 7.0, three hours): inactivity

CCO[Si](C)(C)CCCOCC1CO1 (centres unmarked) [3-glycidoxypropyldimethylethoxysilane]
trypsin-catalyzed hydrolysis and condensation (result in words) (trypsin [1]): preferentially catalyze the hydrolysis and condensation

C[Si]1(CCC(F)(F)F)O[Si](C)(CCC(F)(F)F)O[Si](C)(CCC(F)(F)F)O1 (centres unmarked) [C, trimethyltri(trifluoropropyl)cyclotrisiloxane]
Cyclic Area Percent, Pentamer (x = 5), Trypsin (trypsin [4]): (1.0)
Cyclic Area Percent, Tetramer (x = 4), Trypsin (trypsin [4]): (1.9)
Cyclic Area Percent, Trimer (x = 3), Trypsin (trypsin [4]): (97.1)
Cyclic Area Percent, Pentamer (x = 5), Control (trypsin [4]): (0.8)
Cyclic Area Percent, Tetramer (x = 4), Control (trypsin [4]): (1.7)
Cyclic Area Percent, Trimer (x = 3), Control (trypsin [4]): (97.5)

C[Si]1(c2ccccc2)O[Si](C)(c2ccccc2)O[Si](C)(c2ccccc2)O[Si](C)(c2ccccc2)O1 (centres unmarked) [E, tetramethyltetraphenylcyclotetrasiloxane]
Cyclic Area Percent, Tetramer (x = 4), Trypsin (trypsin [4]): (100)
Cyclic Area Percent, Tetramer (x = 4), Control (trypsin [4]): (100)

c1c[nH]cn1 [imidazole]
condensation of trimethylethoxysilane (result in words) [2]: not observed
condensation of trimethylsilanol (result in words) ([3]; pH 7.0, three hours): not observed

[Ca+2].[Cl-].[Cl-] [CaCl2, calcium chloride]
condensation of trimethylethoxysilane (result in words) [2]: not observed
condensation of trimethylsilanol (result in words) ([3]; pH 7): not observed

C[Si]1(C)O[Si](C)(C)O[Si](C)(O)O[Si](C)(C)O1 [heptamethylhydroxytetracyclosiloxane]
trypsin-catalyzed hydrolysis and condensation (result in words) (trypsin [1]): did not catalyze the condensation

Cc1ccc(S(=O)(=O)N[C@@H](CCCCN)C(=O)CCl)cc1.Cl [TLCK, N-α-p-tosyl-L-lysine chloromethyl ketone hydrochloride]
product yield of the α-chymotrypsin condensation reaction after TLCK treatment ([3]; replicate condensation experiment): significantly decreased

C[Si]1(C)O[Si](C)(C)O[Si](C)(C)O1 [A, hexamethylcyclotrisiloxane]
Cyclic Area Percent, Trimer (x = 3), Trypsin (trypsin [4]): (100)
Cyclic Area Percent, Trimer (x = 3), Control (trypsin [4]): (100)

B1: Candida antarctica lipase B: Candida antarctica lipase B immobilized on acrylic resin beads (protein, UniProt P41365 26-342, looked up)
Lipase B: LPSGSDPAFSQPKSVLDAGLTCQGASPSSVSKPILLVPGTGTTGPQSFDSNWIPLSTQLGYTPCWISPPPFMLNDTQVNTEYMVNAITALYAGSGNNKLPVLTWSQGGLVAQWGLTFFPSIRSKVDRLMAFAPDYKGTVLAGPLDALAVSAPSVWQQTTGSALTTALRNAGGLTQIVPTTNLYSATDEIVQPQVSNSPLDSSYLFNGKNVQAQAVCGPLFVIDHAGSLTSQFSYVVGRSALRSTTGQARSADYGITDCNPLPANDLTPEQKVAAAALLAPAAAAIVAGPKQNCEPDLMPYARPFAVGKRTCSGIVTP
modifications: immobilized on acrylic resin
notes: Candida antarctica lipase B immobilized on acrylic resin beads
condensation of trimethylsilanol, Water [5]: ✓ (determined to catalyse the condensation of greater than ten times more trimethylsilanol than the negative control reactions; as well as, greater than three or ten times more trimethylsilanol than the BSA reactions in organic and aqueous media, respectively)

B2: recombinant bovine trypsin: Recombinant bovine trypsin expressed in maize (protein, UniProt P00760 24-246, looked up)
Serine protease 1: T1 sequence (P00760 24-246)
modifications: expressed in maize
increase of yield of the condensation of trimethylsilanol with calcium [6]: 65%
hydrolysis of trimethylethoxysilane and condensation of trimethylsilanol (result in words) [6]: catalysed the complete hydrolysis

B3: porcine pancreas trypsin: porcine pancreatic trypsin (protein, UniProt P00761 9-231, looked up)
Trypsin: IVGGYTCAANSIPYQVSLNSGSHFCGGSLINSQWVVSAAHCYKSRIQVRLGEHNIDVLEGNEQFINAAKIITHPNFNGNTLDNDIMLIKLSSPATLNSRVATVSLPRSCAAAGTECLISGWGNTKSSGSSYPSLLQCLKAPVLSDSSCKSSYPGQITGNMICVGFLEGGKDSCQGDSGGPVVCNGQLQGIVSWGYGCAQKNKPGVYTKVCNYVNWIQQTIAAN
increase of yield of the condensation of trimethylsilanol with calcium [6]: 125%
hydrolysis of trimethylethoxysilane and condensation of trimethylsilanol (result in words) [6]: catalysed the complete hydrolysis
hydrolysis of trimethylethoxysilane and condensation of trimethylsilanol (result in words) ([6]; listed as trypsin from porcine pancreas): observed to catalyse the hydrolysis and condensation reactions

B4: Rhizomucor miehei lipase: fungal lipase (protein, UniProt P19515 95-363, looked up)
Lipase: SIDGGIRAATSQEINELTYYTTLSANSYCRTVIPGATWDCIHCDATEDLKIIKTWSTLIYDTNAMVARGDSEKTIYIVFRGSSSIRNWIADLTFVPVSYPPVSGTKVHKGFLDSYGEVQNELVATVLDQFKQYPSYKVAVTGHSLGGATALLCALDLYQREEGLSSSNLFLYTQGQPRVGDPAFANYVVSTGIPYRRTVNERDIVPHLPPAAFGFLHAGEEYWITDNSPETVQVCTSDLETSDCSNSIVPFTSVLDHLSYFGINTGLCT
condensation of trimethylsilanol, Water [5]: ✓ (determined to catalyse the condensation of greater than ten times more trimethylsilanol than the negative control reactions; as well as, greater than three or ten times more trimethylsilanol than the BSA reactions in organic and aqueous media, respectively)
